Source: patent publication US7662815B2, “Diaryl ether β2 adrenergic receptor agonists” (Theravance, Inc., priority 2004, dated 2010)

Target: T1, human β2 adrenergic receptor (Homo sapiens, UniProt P07550)
T1 construct: expressed in transfected cells; membranes prepared from the cells
Assay: Radioligand binding assay on human β1 and β2 adrenergic receptors ([3H]dihydroalprenolol displacement)
Settings: binding at β2 versus β1 adrenergic receptor; HEK-293 membranes
Description: HEK-293 derived cell lines stably expressing cloned human β1 or β2 adrenergic receptors, respectively, were grown to near confluency in DMEM with 10% dialyzed FBS in the presence of 500 μg/mL Geneticin. The cell monolayer was lifted with Versene 1:5,000 (0.2 g/L EDTA in PBS) using a cell scraper. Cells were pelleted by centrifugation at 1,000 rpm, and cell pellets were either stored frozen at −80° C. or membranes were prepared immediately. […] Protein concentration of the membrane suspension was determined by the method of Bradford (Bradford M M., Analytical Biochemistry, 1976, 72, 248-54). […]
Binding assays were performed in 96-well microtiter plates in a total assay volume of 100 μL with 5 μg membrane protein for membranes containing the human β2 adrenergic receptor, or 2.5 μg membrane protein for membranes containing the human 01 adrenergic receptor in assay buffer (75 mM Tris/HCl pH 7.4 @ 25° C., 12.5 mM MgCl2, 1 mM EDTA, 0.2% BSA). […] Non-specific binding was determined in the presence of 10 μM unlabeled alprenolol. […] Filter plates were washed three times with filtration buffer (75 mM Tris/HCl pH 7.4 @4° C., 12.5 mM MgCl2, 1 mM EDTA) to remove unbound radioactivity. […] Binding data were analyzed by nonlinear regression analysis with the GraphPad Prism Software package (GraphPad Software, Inc., San Diego, Calif.) using the 3-parameter model for one-site competition. […]

T1 sequence (P07550 whole entry): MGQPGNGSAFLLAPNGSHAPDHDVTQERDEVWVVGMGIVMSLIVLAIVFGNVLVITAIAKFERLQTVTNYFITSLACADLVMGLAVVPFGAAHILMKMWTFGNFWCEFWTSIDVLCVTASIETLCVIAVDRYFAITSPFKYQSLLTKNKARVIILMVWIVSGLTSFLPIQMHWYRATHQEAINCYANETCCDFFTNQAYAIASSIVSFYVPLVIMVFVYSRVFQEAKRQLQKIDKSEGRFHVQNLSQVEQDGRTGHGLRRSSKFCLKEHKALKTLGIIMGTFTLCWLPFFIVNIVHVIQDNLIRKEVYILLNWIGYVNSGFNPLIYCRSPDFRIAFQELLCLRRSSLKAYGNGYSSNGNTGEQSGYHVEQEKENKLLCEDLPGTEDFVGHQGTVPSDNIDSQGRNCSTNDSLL

receptor subtype selectivity, ratio Ki(β1)/Ki(β2): about 18
Structure (SMILES): COc1ccc(Oc2ccc(CCNC[C@H](O)c3ccc(O)c4[nH]c(=O)ccc34)cc2)cc1-c1ccccc1 [Example 1, 8-Hydroxy-5-((R)-1-hydroxy-2-{2-[4-(6-methoxybiphenyl-3-yloxy)phenyl]ethylamino}ethyl)-1H-quinolin-2-one]
